Read-outs that look alike come from different tables or passages of the source.
Legend:
H460 = experiment: Cellular H460 viability assay (CellTiter-Glo, 72 hours); format: cell-based; details: Homo sapiens, NCI-H460
In short: (§1)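 Mycoplasma-tested cells, seeded at densities chosen for each line, received compound or DMSO vehicle (under 0.1% final) for 72 hours. Duplicate cultures were then read for viability by CellTiter-Glo luminescence.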

OVCAR-3 = experiment: Cellular OVCAR-3 viability assay (CellTiter-Glo, 72 hours); format: cell-based; details: Homo sapiens
Text: Human T-cell acute lymphoblastic leukemia cell line, MOLT-4 (ATCC, Cat #CRL-1582), Human multiple myeloma cell line, RPMI-8226 (Invitrogen, Cat #22400-089) and MM.1S (ATCC, Cat #CRL-2974), NSCLC (Non-small cell lung cancer) cell line H460 (ATCC, Cat #HTB-177), Human colon colorectal carcinoma cell line HCT116 (ATCC, Cat #CCL-247), Human acute monocytic leukemia cell line MV4-11 (ATCC, Cat #CRL-9591), OVCAR-3 (ATCC, Cat #HTB-161) and A2780 (ECACC, Cat #93112519) were obtained from ATCC. Cells were grown in RPMI-1640 media (Invitrogen, Cat #22400-089) supplemented with 10% FBS (Invitrogen, Cat #10099141) and 1% penicillin/streptomycin (Invitrogen, Cat #15070063) and cultured at 37° C., 5% CO2 in a humidified chamber. All cell lines were routinely tested for mycoplasma.
The effect of the CDK7 inhibitor to inhibit the growth of target cancer cells was evaluated through the 72 hours time period of viability assay. Briefly, the candidate cell line ware plated in 96 well plate at the following density of cells respectively. 1×10^4 cells/well for MOLT-4, RPMI-8226, MV4-11 and MM.1S, 5×10^3 for H460, HCT116 and OVCAR-3 and IX 10^3 for A2780. After 24 hours, the cells were treated with various concentrations of the compound (ranging from 0.0015 uM to 10 uM). DMSO solvent without compound served as a control and final DMSO concentration less than 0.1%. After 72 hours of incubation at 37° C., 5% CO2 incubator, cells were analyzed for the viability using the CellTiter-Glo Luminescent Cell Viability Assay (Promega, Cat #G7570). All viability assays were performed in duplicate and Luminescence was read using an Envision (Perkin Elmer, USA). Data was analyzed using XLfit software.

CDK1/Cyclin B = target: T1, CDK1/Cyclin B (Homo sapiens, UniProt P06493); experiment: Enzymatic assay for CDK1 (FRET based LANCE Ultra kinase assay); format: biochemical
T1 construct: purchased Invitrogen PR4768C
In short: (§2)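 LANCE Ultra TR-FRET: ULight-MBP peptide (68 nM) with ATP at Km, […], 60 min at 23° C. EDTA plus Eu-anti-phospho-MBP added, another 60 min, then 665/615 nm emission read. Compounds tested as 8-dose 4-fold DMSO dilutions.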

MV4-11 = experiment: Cellular MV4-11 viability assay (CellTiter-Glo, 72 hours); format: cell-based; details: Homo sapiens
In short: as §1

CDK5/p25 = target: T2, CDK5/p25 (Homo sapiens, UniProt Q00535); experiment: Enzymatic assay for CDK5 (FRET based LANCE Ultra kinase assay); format: biochemical
T2 construct: purchased Invitrogen PR8543B
In short: as §2

CDK2/Cyclin A = target: T3, CDK2/Cyclin A (Homo sapiens, UniProt P24941); experiment: Enzymatic assay for CDK2 (FRET based LANCE Ultra kinase assay); format: biochemical
T3 construct: purchased Invitrogen PV6290
In short: as §2

MM.1S = experiment: Cellular MM.1S viability assay (CellTiter-Glo, 72 hours); format: cell-based; details: Homo sapiens, MM1.S
In short: (§3)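 Compound exposure lasted 72 h at 37° C, 5% CO2, over 0.0015–10 uM, DMSO kept under 0.1%, with dosing 24 h after seeding. Seeding: A2780 1×10^3, OVCAR-3 5×10^3, MM.1S 1×10^4 cells/well in 10% FBS RPMI-1640. Duplicate CellTiter-Glo luminescence readout.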

A2780 = experiment: Cellular A2780 viability assay (CellTiter-Glo, 72 hours); format: cell-based; details: Homo sapiens
In short: as §3

CDK7/Cyclin H/MNAT1 = target: T4, CDK7/Cyclin H/MNAT1 (Homo sapiens, UniProt P50613); experiment: Enzymatic assay for CDK7 (FRET based LANCE Ultra kinase assay); format: biochemical
T4 construct: purchased Invitrogen PR6749B
In short: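 Inhibition was measured at Km ATP by time-resolved FRET between a Eu anti-phospho antibody and a phosphorylated ULight peptide. The enzyme was the purified CDK7/cyclin complex, and data were curve-fitted.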

RPMI-8226 = experiment: Cellular RPMI-8226 viability assay (CellTiter-Glo, 72 hours); format: cell-based; details: Homo sapiens
In short: as §1

HCT116 = experiment: Cellular HCT116 viability assay (CellTiter-Glo, 72 hours); format: cell-based; details: Homo sapiens, HCT-116
In short: as §1

MOLT-4 = experiment: Cellular MOLT-4 viability assay (CellTiter-Glo, 72 hours); format: cell-based; details: Homo sapiens, MOLT4 viability assay
In short: as §1

[1] = read-out: CDK1 enzymatic activity (IC50 range)
[2] = read-out: CDK5 enzymatic activity (IC50 range)
[3] = read-out: CDK2 enzymatic activity (IC50 range)
[4] = read-out: CDK7 enzymatic activity (IC50 range)
[5] = read-out: CDK1 enzymatic activity (IC50 activity range)
[6] = read-out: CDK5 enzymatic activity (IC50 activity range)
[7] = read-out: CDK2 enzymatic activity (IC50 activity range)
[8] = read-out: CDK7 enzymatic activity (IC50 activity range)

T4 sequence (P50613 whole entry): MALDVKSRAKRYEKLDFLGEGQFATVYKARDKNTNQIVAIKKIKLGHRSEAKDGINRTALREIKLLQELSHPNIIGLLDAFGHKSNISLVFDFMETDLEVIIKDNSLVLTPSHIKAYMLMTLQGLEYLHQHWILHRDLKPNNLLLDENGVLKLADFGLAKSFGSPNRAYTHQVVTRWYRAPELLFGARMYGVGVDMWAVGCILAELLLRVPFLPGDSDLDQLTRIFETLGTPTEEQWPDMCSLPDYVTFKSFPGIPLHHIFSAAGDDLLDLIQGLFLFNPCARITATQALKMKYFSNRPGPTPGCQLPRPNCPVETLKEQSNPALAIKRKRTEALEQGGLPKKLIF
T4 sequence (P51946 whole entry partner): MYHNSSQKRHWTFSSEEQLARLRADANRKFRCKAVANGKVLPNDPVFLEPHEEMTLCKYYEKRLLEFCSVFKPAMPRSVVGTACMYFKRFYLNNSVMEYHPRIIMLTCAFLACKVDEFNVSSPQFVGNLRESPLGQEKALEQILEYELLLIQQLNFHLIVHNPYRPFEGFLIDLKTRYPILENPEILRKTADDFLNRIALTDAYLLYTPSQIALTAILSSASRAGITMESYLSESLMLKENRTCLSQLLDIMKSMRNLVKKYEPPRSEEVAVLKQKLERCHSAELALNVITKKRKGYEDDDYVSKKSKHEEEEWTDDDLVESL
T4 sequence (P51948 whole entry partner): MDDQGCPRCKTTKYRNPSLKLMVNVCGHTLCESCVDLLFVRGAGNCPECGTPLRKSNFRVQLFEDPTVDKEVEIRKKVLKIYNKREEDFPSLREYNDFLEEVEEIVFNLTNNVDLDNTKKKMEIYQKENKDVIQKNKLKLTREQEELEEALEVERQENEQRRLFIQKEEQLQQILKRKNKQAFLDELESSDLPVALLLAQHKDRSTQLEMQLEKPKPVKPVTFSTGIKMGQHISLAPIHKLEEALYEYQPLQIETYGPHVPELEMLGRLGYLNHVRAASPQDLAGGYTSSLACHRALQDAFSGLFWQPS
T2 sequence (Q00535 whole entry): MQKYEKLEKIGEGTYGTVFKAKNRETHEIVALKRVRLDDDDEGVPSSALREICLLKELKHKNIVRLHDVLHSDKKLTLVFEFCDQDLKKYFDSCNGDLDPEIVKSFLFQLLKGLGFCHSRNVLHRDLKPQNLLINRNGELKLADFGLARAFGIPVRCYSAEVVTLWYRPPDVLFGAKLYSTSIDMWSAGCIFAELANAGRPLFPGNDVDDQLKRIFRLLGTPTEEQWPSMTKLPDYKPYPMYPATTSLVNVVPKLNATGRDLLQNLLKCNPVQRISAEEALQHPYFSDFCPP
T2 sequence (Q15078 99-307 partner limits assumed): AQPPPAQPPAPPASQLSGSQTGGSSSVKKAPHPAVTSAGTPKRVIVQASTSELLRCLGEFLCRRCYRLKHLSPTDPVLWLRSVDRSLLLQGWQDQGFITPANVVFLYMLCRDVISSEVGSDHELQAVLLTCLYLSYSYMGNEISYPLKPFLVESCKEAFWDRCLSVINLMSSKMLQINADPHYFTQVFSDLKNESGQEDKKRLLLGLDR
T1 sequence (P06493 whole entry): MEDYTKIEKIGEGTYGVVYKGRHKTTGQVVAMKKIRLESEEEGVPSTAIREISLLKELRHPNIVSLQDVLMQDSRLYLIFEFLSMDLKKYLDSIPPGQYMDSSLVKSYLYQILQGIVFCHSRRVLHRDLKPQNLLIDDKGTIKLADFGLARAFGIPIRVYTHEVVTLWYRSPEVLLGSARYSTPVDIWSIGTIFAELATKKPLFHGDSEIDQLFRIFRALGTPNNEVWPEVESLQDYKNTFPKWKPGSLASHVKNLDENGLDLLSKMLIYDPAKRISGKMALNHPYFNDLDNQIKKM
T1 sequence (P14635 whole entry partner): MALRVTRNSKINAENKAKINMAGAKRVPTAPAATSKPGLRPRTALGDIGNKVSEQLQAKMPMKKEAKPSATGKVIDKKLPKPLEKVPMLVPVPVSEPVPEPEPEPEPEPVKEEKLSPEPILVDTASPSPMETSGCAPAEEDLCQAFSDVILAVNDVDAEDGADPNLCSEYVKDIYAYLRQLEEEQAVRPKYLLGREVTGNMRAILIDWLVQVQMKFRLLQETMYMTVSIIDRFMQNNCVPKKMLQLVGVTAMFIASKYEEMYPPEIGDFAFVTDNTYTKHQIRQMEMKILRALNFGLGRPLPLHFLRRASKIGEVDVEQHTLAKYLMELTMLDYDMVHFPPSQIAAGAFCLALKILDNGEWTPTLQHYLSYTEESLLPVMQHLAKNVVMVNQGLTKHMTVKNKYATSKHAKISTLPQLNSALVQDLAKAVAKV

| SMILES | IC50 (H460) | IC50 (OVCAR-3) | IC50 (CDK1/Cyclin B; [1]) | IC50 (MV4-11) | IC50 (CDK5/p25; [2]) | IC50 (CDK2/Cyclin A; [3]) | IC50 (MM.1S) | IC50 (A2780) | CDK1/CDK7: Selectivity of CDK7 inhibition over CDK1 inhibition (CDK7/Cyclin H/MNAT1; CDK7 over CDK1) | CDK2/CDK7: Selectivity of CDK7 inhibition over CDK2 inhibition (CDK7/Cyclin H/MNAT1; CDK7 over CDK2) | CDK5/CDK7: Selectivity of CDK7 inhibition over CDK5 inhibition (CDK7/Cyclin H/MNAT1; CDK7 over CDK5) | IC50 (CDK7/Cyclin H/MNAT1; [4]) | IC50 (HCT116) | also measured |
| --- | --- | --- | --- | --- | --- | --- | --- | --- | --- | --- | --- | --- | --- | --- |
| CC(C)c1cnn2c(NCc3ccccc3-n3cccn3)nc(-c3cccc(OC4CCNC4)c3)nc12 (racemic) [Compound 163] | < 1000 nM | 1000 to 10000 nM | > 1000 nM | < 1000 nM | 100 to 1000 nM | 100 to 1000 nM | ≤ 1000 nM | ≤ 1000 nM | A (A=greater than 200 fold) | B (B=less than 200 fold, but greater than 20 fold) | B (B=less than 200 fold, but greater than 20 fold) | < 100 nM |  |  |
| CC(C)c1cnn2c(NCc3ccccc3-c3cc4cccc(NC(=O)C5CC5)c4[nH]3)nc(N3CCC(N)CC3)nc12 [Compound 144] | < 1000 nM | 1000 to 10000 nM | 100 to 1000 nM | < 1000 nM | < 100 nM | 100 to 1000 nM |  | ≤ 1000 nM | B (B=less than 200 fold, but greater than 20 fold) | B (B=less than 200 fold, but greater than 20 fold) | C (C=less than 20 fold) | < 100 nM | < 1000 nM | IC50 (RPMI-8226): < 1000 nM |
| CC(C)c1cnn2c(NCc3c(Cl)cccc3-c3cc4ccccc4[nH]3)nc(N3CCC(N)CC3)nc12 [Compound 182] | < 1000 nM | 1000 to 10000 nM | > 1000 nM | < 1000 nM | > 1000 nM | > 1000 nM | ≤ 1000 nM | ≤ 1000 nM | A (A=greater than 200 fold) | A (A=greater than 200 fold) | A (A=greater than 200 fold) | < 100 nM | < 1000 nM | IC50 (RPMI-8226): < 1000 nM |
| CC(C)c1cnn2c(NCc3ccccc3-c3ccc4ccccc4n3)nc(N[C@H]3CC[C@H](O)CC3)nc12 [Compound 266] | < 1000 nM | ≤ 1000 nM |  | 1000 to 10000 nM |  |  |  | ≤ 1000 nM |  |  |  |  |  | IC50 (CDK1/Cyclin B; [5]): > 1000 nM; IC50 (CDK5/p25; [6]): > 1000 nM; IC50 (CDK2/Cyclin A; [7]): > 1000 nM; CDK1/CDK7: Selectivity of CDK7 inhibition over CDK1 inhibition (CDK7/Cyclin H/MNAT1; CDK1/CDK7): A (A=greater than 200 fold); CDK2/CDK7: Selectivity of CDK7 inhibition over CDK2 inhibition (CDK7/Cyclin H/MNAT1; CDK2/CDK7): A (A=greater than 200 fold); CDK5/CDK7: Selectivity of CDK7 inhibition over CDK5 inhibition (CDK7/Cyclin H/MNAT1; CDK5/CDK7): A (A=greater than 200 fold); IC50 (CDK7/Cyclin H/MNAT1; [8]): < 100 nM |
| CC(C)c1cnn2c(NCc3ccccc3-c3ccc4ccccc4n3)nc(N3CCC(N)CC3)nc12 [Compound 48] | < 1000 nM | 1000 to 10000 nM | > 1000 nM | < 1000 nM | 100 to 1000 nM | > 1000 nM | ≤ 1000 nM | ≤ 1000 nM | A (A=greater than 200 fold) | A (A=greater than 200 fold) | B (B=less than 200 fold, but greater than 20 fold) | < 100 nM | < 1000 nM | IC50 (RPMI-8226): < 1000 nM; IC50 (MOLT-4): 1000 to 10000 nM |
| CC(C)c1cnn2c(NCc3c(Cl)cccc3-c3ccc4ccccc4n3)nc(N3CCC(N)CC3)nc12 [Compound 194] | < 1000 nM | 1000 to 10000 nM | > 1000 nM | < 1000 nM | > 1000 nM | > 1000 nM | ≤ 1000 nM | ≤ 1000 nM | A (A=greater than 200 fold) | A (A=greater than 200 fold) | A (A=greater than 200 fold) | < 100 nM | < 1000 nM |  |
| CC(C)c1cnn2c(NCc3ccccc3-c3ccc4ccccc4n3)nc(N3CCC(O)(CN)CC3)nc12 [Compound 219] | < 1000 nM | 1000 to 10000 nM | > 1000 nM | < 1000 nM | > 1000 nM | > 1000 nM |  | ≤ 1000 nM | A (A=greater than 200 fold) | A (A=greater than 200 fold) | A (A=greater than 200 fold) | < 100 nM | < 1000 nM |  |
| CC(C)c1cnn2c(NCc3ccccc3-c3ccc4ccccc4n3)nc(N[C@H]3CC[C@@H](O)CC3)nc12 [Compound 265] | < 1000 nM | 1000 to 10000 nM |  | 1000 to 10000 nM |  |  |  | ≤ 1000 nM |  |  |  |  |  | IC50 (CDK1/Cyclin B; [5]): > 1000 nM; IC50 (CDK5/p25; [6]): > 1000 nM; IC50 (CDK2/Cyclin A; [7]): > 1000 nM; CDK1/CDK7: Selectivity of CDK7 inhibition over CDK1 inhibition (CDK7/Cyclin H/MNAT1; CDK1/CDK7): A (A=greater than 200 fold); CDK2/CDK7: Selectivity of CDK7 inhibition over CDK2 inhibition (CDK7/Cyclin H/MNAT1; CDK2/CDK7): A (A=greater than 200 fold); CDK5/CDK7: Selectivity of CDK7 inhibition over CDK5 inhibition (CDK7/Cyclin H/MNAT1; CDK5/CDK7): A (A=greater than 200 fold); IC50 (CDK7/Cyclin H/MNAT1; [8]): < 100 nM |
| CC(C)c1cnn2c(NCc3ccccc3-c3ccc4ccccc4n3)nc(NC[C@H]3CCNC[C@@H]3O)nc12 [Compound 225] | < 1000 nM | ≤ 1000 nM | > 1000 nM | < 1000 nM | 100 to 1000 nM | 100 to 1000 nM |  | ≤ 1000 nM | A (A=greater than 200 fold) | A (A=greater than 200 fold) | A (A=greater than 200 fold) | < 100 nM | < 1000 nM |  |
| CC(C)c1cnn2c(NCc3ccccc3-c3ccc4ccccc4n3)nc(NCC[C@@H](O)CN)nc12 [Compound 251] | < 1000 nM | 1000 to 10000 nM |  | < 1000 nM |  |  |  | ≤ 1000 nM |  |  |  |  |  | IC50 (CDK1/Cyclin B; [5]): > 1000 nM; IC50 (CDK5/p25; [6]): > 1000 nM; IC50 (CDK2/Cyclin A; [7]): > 1000 nM; CDK1/CDK7: Selectivity of CDK7 inhibition over CDK1 inhibition (CDK7/Cyclin H/MNAT1; CDK1/CDK7): A (A=greater than 200 fold); CDK2/CDK7: Selectivity of CDK7 inhibition over CDK2 inhibition (CDK7/Cyclin H/MNAT1; CDK2/CDK7): A (A=greater than 200 fold); CDK5/CDK7: Selectivity of CDK7 inhibition over CDK5 inhibition (CDK7/Cyclin H/MNAT1; CDK5/CDK7): A (A=greater than 200 fold); IC50 (CDK7/Cyclin H/MNAT1; [8]): < 100 nM |
| CC(C)c1cnn2c(N[C@@H](C)c3ccccc3-n3cc4ccccc4n3)nc(N3CCC(N)CC3)nc12 [Compound 183] | < 1000 nM | 1000 to 10000 nM | > 1000 nM | < 1000 nM | > 1000 nM | > 1000 nM | ≤ 1000 nM | ≤ 1000 nM | A (A=greater than 200 fold) | A (A=greater than 200 fold) | A (A=greater than 200 fold) | < 100 nM | < 1000 nM |  |
